Reference: PMC5650741 (ACS infectious diseases, 2017)

Target: T1, E. coli DXP synthase (DXPS) (Escherichia coli, UniProt P77488)
T1 sequence (P77488 2-620): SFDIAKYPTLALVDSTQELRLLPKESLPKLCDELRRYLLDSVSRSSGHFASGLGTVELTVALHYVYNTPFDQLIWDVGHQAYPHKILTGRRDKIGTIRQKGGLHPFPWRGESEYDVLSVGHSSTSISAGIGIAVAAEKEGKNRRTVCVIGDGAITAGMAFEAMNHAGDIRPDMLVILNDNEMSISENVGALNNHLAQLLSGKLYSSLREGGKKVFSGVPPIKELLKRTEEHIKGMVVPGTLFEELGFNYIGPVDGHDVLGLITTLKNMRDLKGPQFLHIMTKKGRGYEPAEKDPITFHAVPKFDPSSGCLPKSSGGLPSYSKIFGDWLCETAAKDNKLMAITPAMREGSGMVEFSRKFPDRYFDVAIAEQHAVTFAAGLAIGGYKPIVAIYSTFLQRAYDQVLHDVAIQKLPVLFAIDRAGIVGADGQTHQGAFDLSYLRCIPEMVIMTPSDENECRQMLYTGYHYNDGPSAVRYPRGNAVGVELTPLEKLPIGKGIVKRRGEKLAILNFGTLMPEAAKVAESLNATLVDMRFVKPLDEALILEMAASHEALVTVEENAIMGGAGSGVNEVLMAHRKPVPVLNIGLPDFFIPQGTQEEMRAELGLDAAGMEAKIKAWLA
Experiment: IspC-coupled NADPH consumption at […] nm
Format: biochemical

## CCCOP(=O)(O)C(C)=O [compound 3, alkylAP 3]
  Ki: 7.1 ± 0.8 µM

## CCCCCCCCOP(=O)(O)C(C)=O [compound 7, octylacetylphosphonate]
  Ki: 1.4 ± 0.2 µM
